Assay results taken from patent US20240000872A1, “NOVEL BACTERIOPHAGE THAT LYSES ACINETOBACTER GENUS BACTERIA HAVING RESISTANCE TO ANTIBIOTICS” (priority 2020, published 2024).

Test system: Acinetobacter baumannii strains
Experiment: Antibiotic susceptibility test (CLSI disk diffusion test method, read per CLSI 2016)
Type: cell-based
Method: (§1) Strain identification was performed using a kit such as AT 32 GN system (bioMérieux, Marcy l'Etoile, France). […] In Table 2 below, S, I, and R are the results obtained by evaluating susceptibility to the antibacterial agents, in which ‘S’ means susceptible, ‘I’ means intermediate, and ‘R’ means resistant.
as §1, with “as ATB” for “as AT”, “system (bioMédrieux,” for “system (bioMérieux,”, “Table 6” for “Table 2”
as §1, with “as ATB” for “as AT”, “Table 10” for “Table 2”, “susceptible, T” for “susceptible, ‘I’”

`NCC[C@H](O)C(=O)N[C@@H]1C[C@H](N)[C@@H](O[C@H]2O[C@H](CN)[C@@H](O)[C@H](O)[C@H]2O)[C@H](O)[C@H]1O[C@H]1O[C@H](CO)[C@@H](O)[C@H](N)[C@H]1O` [Amikacin, amikacin] was tested, and the antibiotic susceptibility class (host strain YMC14/01/C29) was “R”, the antibiotic susceptibility class (host strain YMC14/01/IP122) was “R” and the antibiotic susceptibility class (host strain YMC14/01/L8) was “R”. For the same molecule, the antibiotic susceptibility class (host strain YMC14/01/P31) was “R”, the antibiotic susceptibility class (host strain YMC14/01/P117) was “R” and the antibiotic susceptibility class (host strain YMC14/01/P224) was “R”. The antibiotic susceptibility class (host strain YMC14/01/P727) was “R”, the antibiotic susceptibility class (host strain YMC14/01/P728) was “R” and the antibiotic susceptibility class (host strain YMC14/01/R130) was “R”. For the same molecule, the antibiotic susceptibility class (host strain YMC14/01/R160) was “R”, the antibiotic susceptibility class (host strain YMC14/01/R198) was “R” and the antibiotic susceptibility class (host strain YMC14/01/R257) was “S”. For the same molecule, the antibiotic susceptibility class (host strain YMC14/01/R270) was “R”, the antibiotic susceptibility class (host strain YMC14/01/R324) was “R” and the antibiotic susceptibility class (host strain YMC14/01/R443) was “R”. The antibiotic susceptibility class (host strain YMC14/01/R451) was “R”, the antibiotic susceptibility class (host strain YMC14/01/R560) was “R” and the antibiotic susceptibility class (host strain YMC14/01/R617) was “R”. The antibiotic susceptibility class (host strain YMC14/01/R671) was “R”, the antibiotic susceptibility class (host strain YMC14/01/R732) was “R” and the antibiotic susceptibility class (host strain YMC14/01/R767) was “R”. For the same molecule, the antibiotic susceptibility class (host strain YMC14/01/R904) was “R”, the antibiotic susceptibility class (host strain YMC14/01/R905) was “R” and the antibiotic susceptibility class (host strain YMC14/01/R921) was “S”. The antibiotic susceptibility class (host strain YMC14/01/R941) was “R”, the antibiotic susceptibility class (host strain YMC14/01/R958) was “R” and the antibiotic susceptibility class (host strain YMC14/01/R1006) was “R”. For the same molecule, the antibiotic susceptibility class (host strain YMC14/01/R1199) was “R”, the antibiotic susceptibility class (host strain YMC14/01/R1659) was “R” and the antibiotic susceptibility class (host strain YMC14/01/R1722) was “R”. For the same molecule, the antibiotic susceptibility class (host strain YMC14/01/R1752) was “R”, the antibiotic susceptibility class (host strain YMC14/01/R2429) was “R” and the antibiotic susceptibility class (host strain YMC14/01/R2572) was “R”. For the same molecule, the antibiotic susceptibility class (host strain YMC14/01/R2855) was “R”, the antibiotic susceptibility class (host strain YMC14/01/R2945) was “R” and the antibiotic susceptibility class (host strain YMC14/01/R3007) was “R”. The antibiotic susceptibility class (host strain YMC14/01/R3129) was “R”, the antibiotic susceptibility class (host strain YMC14/01/R3317) was “R” and the antibiotic susceptibility class (host strain YMC14/01/R3474) was “R”. The antibiotic susceptibility class (host strain YMC14/01/R3574) was “R”, the antibiotic susceptibility class (host strain YMC14/01/U313) was “R” and the antibiotic susceptibility class (host strain YMC14/01/U318) was “R”. The antibiotic susceptibility class (host strain YMC14/02/L18) was “R”, the antibiotic susceptibility class (host strain YMC14/02/P47) was “R” and the antibiotic susceptibility class (host strain YMC14/02/R1860) was “S”. The antibiotic susceptibility class (host strain YMC14/02/R2417) was “R”, the antibiotic susceptibility class (host strain YMC14/02/R2599) was “S” and the antibiotic susceptibility class (host strain YMC14/02/R2668) was “R”. For the same molecule, the antibiotic susceptibility class (host strain YMC14/02/R2758) was “R”, the antibiotic susceptibility class (host strain YMC14/02/R2781) was “R” and the antibiotic susceptibility class (host strain YMC14/02/R3106) was “R”. For the same molecule, the antibiotic susceptibility class (host strain YMC14/02/R3419) was “R”, the antibiotic susceptibility class (host strain YMC14/02/U1607) was “S” and the antibiotic susceptibility class (host strain YMC14/03/L9) was “S”. For the same molecule, the antibiotic susceptibility class (host strain YMC14/03/P471) was “S”, the antibiotic susceptibility class (host strain YMC14/03/R122) was “S” and the antibiotic susceptibility class (host strain YMC14/03/R217) was “R”. For the same molecule, the antibiotic susceptibility class (host strain YMC14/03/R380) was “R”, the antibiotic susceptibility class (host strain YMC14/03/R618) was “S” and the antibiotic susceptibility class (host strain YMC14/03/R2144) was “R”. The antibiotic susceptibility class (host strain YMC14/03/U4616) was “R”, the antibiotic susceptibility class (host strain YMC14/04/R1078) was “S” and the antibiotic susceptibility class (host strain YMC14/04/R1080) was “S”. The “antibiotic susceptibility S/I/R” value (host strain YMC14/06/R2359) was “R”, the “susceptibility category (S/I/R)” value (host strain YMC14/06/R2359) was “R” and the “antibiotic susceptibility S/I/R” value (host strain YMC14/08/R1169) was “R”. The “susceptibility category (S/I/R)” value (host strain YMC14/08/R1169) was “R”, the “antibiotic susceptibility S/I/R” value (host strain YMC14/08/T90) was “R” and the “susceptibility category (S/I/R)” value (host strain YMC14/08/T90) was “R”. For the same molecule, the “antibiotic susceptibility S/I/R” value (host strain YMC15/02/R436) was “R”, the “susceptibility category (S/I/R)” value (host strain YMC15/02/R436) was “R” and the “antibiotic susceptibility S/I/R” value (host strain YMC15/02/T28) was “R”. The “susceptibility category (S/I/R)” value (host strain YMC15/02/T28) was “R”, the “antibiotic susceptibility S/I/R” value (host strain YMC15/03/R1604) was “R” and the “susceptibility category (S/I/R)” value (host strain YMC15/03/R1604) was “R”. The “antibiotic susceptibility S/I/R” value (host strain YMC15/09/R1869) was “R”, the “susceptibility category (S/I/R)” value (host strain YMC15/09/R1869) was “R” and the “antibiotic susceptibility S/I/R” value (host strain YMC16/01/P11) was “R”. For the same molecule, the “susceptibility category (S/I/R)” value (host strain YMC16/01/P11) was “R”, the “antibiotic susceptibility S/I/R” value (host strain YMC16/01/R123) was “R” and the “susceptibility category (S/I/R)” value (host strain YMC16/01/R123) was “R”. The “antibiotic susceptibility S/I/R” value (host strain YMC16/01/R198) was “R”, the “susceptibility category (S/I/R)” value (host strain YMC16/01/R198) was “R” and the “antibiotic susceptibility S/I/R” value (host strain YMC16/01/R353) was “R”. The “susceptibility category (S/I/R)” value (host strain YMC16/01/R353) was “R”, the “antibiotic susceptibility S/I/R” value (host strain YMC16/01/R397) was “R” and the “susceptibility category (S/I/R)” value (host strain YMC16/01/R397) was “R”. The “antibiotic susceptibility S/I/R” value (host strain YMC16/01/R405) was “R”, the “susceptibility category (S/I/R)” value (host strain YMC16/01/R405) was “R” and the “antibiotic susceptibility S/I/R” value (host strain YMC16/03/R4461) was “R”. For the same molecule, the “susceptibility category (S/I/R)” value (host strain YMC16/03/R4461) was “R”, the “antibiotic susceptibility S/I/R” value (host strain YMC16/07/R2512) was “R” and the “susceptibility category (S/I/R)” value (host strain YMC16/07/R2512) was “R”. The “antibiotic susceptibility S/I/R” value (host strain YMC16/09/R2471) was “R”, the “susceptibility category (S/I/R)” value (host strain YMC16/09/R2471) was “R” and the “antibiotic susceptibility S/I/R” value (host strain YMC16/10/R2537) was “R”. For the same molecule, the “susceptibility category (S/I/R)” value (host strain YMC16/10/R2537) was “R”, the “antibiotic susceptibility S/I/R” value (host strain YMC16/12/B11422) was “R” and the “susceptibility category (S/I/R)” value (host strain YMC16/12/B11422) was “R”. The “antibiotic susceptibility S/I/R” value (host strain YMC16/12/B11449) was “R”, the “susceptibility category (S/I/R)” value (host strain YMC16/12/B11449) was “R” and the “antibiotic susceptibility S/I/R” value (host strain YMC16/12/B13325) was “R”. For the same molecule, the “susceptibility category (S/I/R)” value (host strain YMC16/12/B13325) was “R”, the “antibiotic susceptibility S/I/R” value (host strain YMC16/12/P503) was “R” and the “susceptibility category (S/I/R)” value (host strain YMC16/12/P503) was “R”. The “antibiotic susceptibility S/I/R” value (host strain YMC16/12/R4637) was “R”, the “susceptibility category (S/I/R)” value (host strain YMC16/12/R4637) was “R” and the “antibiotic susceptibility S/I/R” value (host strain YMC17/01/B8053) was “R”. For the same molecule, the “susceptibility category (S/I/R)” value (host strain YMC17/01/B8053) was “R”, the “antibiotic susceptibility S/I/R” value (host strain YMC17/01/B10087) was “R” and the “susceptibility category (S/I/R)” value (host strain YMC17/01/B10087) was “R”. The “antibiotic susceptibility S/I/R” value (host strain YMC17/01/B12075) was “S”, the “susceptibility category (S/I/R)” value (host strain YMC17/01/B12075) was “S” and the “antibiotic susceptibility S/I/R” value (host strain YMC17/01/B13454) was “R”. For the same molecule, the “susceptibility category (S/I/R)” value (host strain YMC17/01/B13454) was “R”, the “antibiotic susceptibility S/I/R” value (host strain YMC17/01/P518) was “R” and the “susceptibility category (S/I/R)” value (host strain YMC17/01/P518) was “R”. For the same molecule, the “antibiotic susceptibility S/I/R” value (host strain YMC17/01/R2812) was “R”, the “susceptibility category (S/I/R)” value (host strain YMC17/01/R2812) was “R” and the “antibiotic susceptibility S/I/R” value (host strain YMC17/02/B14) was “R”. For the same molecule, the “susceptibility category (S/I/R)” value (host strain YMC17/02/B14) was “R”, the “antibiotic susceptibility S/I/R” value (host strain YMC17/02/B87) was “S” and the “susceptibility category (S/I/R)” value (host strain YMC17/02/B87) was “S”. The “antibiotic susceptibility S/I/R” value (host strain YMC17/02/B721) was “R”, the “susceptibility category (S/I/R)” value (host strain YMC17/02/B721) was “R” and the “antibiotic susceptibility S/I/R” value (host strain YMC17/02/B4039) was “R”. The “susceptibility category (S/I/R)” value (host strain YMC17/02/B4039) was “R”, the “antibiotic susceptibility S/I/R” value (host strain YMC17/02/B4520) was “R” and the “susceptibility category (S/I/R)” value (host strain YMC17/02/B4520) was “R”. The “antibiotic susceptibility S/I/R” value (host strain YMC17/02/B4864) was “S”, the “susceptibility category (S/I/R)” value (host strain YMC17/02/B4864) was “S” and the “antibiotic susceptibility S/I/R” value (host strain YMC17/02/B8414) was “R”. The “susceptibility category (S/I/R)” value (host strain YMC17/02/B8414) was “R”, the “antibiotic susceptibility S/I/R” value (host strain YMC17/02/P523) was “S” and the “susceptibility category (S/I/R)” value (host strain YMC17/02/P523) was “S”. For the same molecule, the “antibiotic susceptibility S/I/R” value (host strain YMC17/02/R541) was “R”, the “susceptibility category (S/I/R)” value (host strain YMC17/02/R541) was “R” and the “antibiotic susceptibility S/I/R” value (host strain YMC17/02/R2392) was “R”. The “susceptibility category (S/I/R)” value (host strain YMC17/02/R2392) was “R”, the “antibiotic susceptibility S/I/R” value (host strain YMC17/03/B4730) was “R” and the “susceptibility category (S/I/R)” value (host strain YMC17/03/B4730) was “R”. The “antibiotic susceptibility S/I/R” value (host strain YMC17/03/B5000) was “R”, the “susceptibility category (S/I/R)” value (host strain YMC17/03/B5000) was “R” and the “antibiotic susceptibility S/I/R” value (host strain YMC17/03/P971) was “R”. For the same molecule, the “susceptibility category (S/I/R)” value (host strain YMC17/03/P971) was “R”, the “antibiotic susceptibility S/I/R” value (host strain YMC17/03/R348) was “R” and the “susceptibility category (S/I/R)” value (host strain YMC17/03/R348) was “R”. For the same molecule, the “antibiotic susceptibility S/I/R” value (host strain YMC17/03/R585) was “R”, the “susceptibility category (S/I/R)” value (host strain YMC17/03/R585) was “R” and the “antibiotic susceptibility S/I/R” value (host strain YMC17/03/R1888) was “R”. The “susceptibility category (S/I/R)” value (host strain YMC17/03/R1888) was “R”, the “antibiotic susceptibility S/I/R” value (host strain YMC17/03/R3279) was “R” and the “susceptibility category (S/I/R)” value (host strain YMC17/03/R3279) was “R”. The “antibiotic susceptibility S/I/R” value (host strain YMC17/03/R4077) was “R”, the “susceptibility category (S/I/R)” value (host strain YMC17/03/R4077) was “R” and the “antibiotic susceptibility S/I/R” value (host strain YMC17/03/R4607) was “R”. The “susceptibility category (S/I/R)” value (host strain YMC17/03/R4607) was “R”, the “antibiotic susceptibility S/I/R” value (host strain YMC17/04/R488) was “R” and the “susceptibility category (S/I/R)” value (host strain YMC17/04/R488) was “R”. For the same molecule, the “antibiotic susceptibility S/I/R” value (host strain YMC17/04/R640) was “R”, the “susceptibility category (S/I/R)” value (host strain YMC17/04/R640) was “R” and the “antibiotic susceptibility S/I/R” value (host strain YMC/17/05/R1095) was “R”. The “susceptibility category (S/I/R)” value (host strain YMC/17/05/R1095) was “R”.
